Values quoted from earlier work as cited in paper PMC7180638, “Synthesis of Pyrrolidine Monocyclic Analogues of Pochonicine and Its Stereoisomers: Pursuit of Simplified Structures and Potent β-N-Acetylhexosaminidase Inhibition” (Molecules, 2020).
Read-outs that look alike come from different tables or passages of the source.

Key:
[1] = target: β-N-Acetylhexosaminidase (Bovine liver); details: ref [2]; cited from earlier work
[2] = target: β-N-Acetylhexosaminidase (HL60); details: ref [2]; cited from earlier work
[3] = target: β-N-Acetylhexosaminidase (Jack bean); details: ref [2]; cited from earlier work
[4] = target: β-N-Acetylgalactosaminidase (HL60); details: ref [2]; cited from earlier work
[5] = target: T1, α-N-Acetylgalactosaminidase (Chicken liver) (Gallus gallus, UniProt Q90744); details: ref [2], cited from earlier work
T1 construct: purchased Sigma-Aldrich Chemical Co; host or cells: chicken liver
T1 sequence (Q90744 1-405): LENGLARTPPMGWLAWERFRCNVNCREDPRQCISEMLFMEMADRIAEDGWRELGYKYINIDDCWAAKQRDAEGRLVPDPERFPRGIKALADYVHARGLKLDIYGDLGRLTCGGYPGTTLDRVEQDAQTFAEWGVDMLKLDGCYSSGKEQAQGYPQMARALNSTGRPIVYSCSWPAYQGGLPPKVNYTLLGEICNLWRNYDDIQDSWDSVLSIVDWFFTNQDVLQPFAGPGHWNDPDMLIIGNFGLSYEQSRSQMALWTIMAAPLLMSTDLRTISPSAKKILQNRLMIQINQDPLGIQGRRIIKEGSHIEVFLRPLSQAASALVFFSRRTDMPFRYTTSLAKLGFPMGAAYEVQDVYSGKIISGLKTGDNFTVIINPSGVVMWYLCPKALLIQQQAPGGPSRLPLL

[6] = target: β-N Acetylhexosaminidase (A. oryzae); details: ref [2]; cited from earlier work
[7] = target: β-N Acetylhexosaminidase (Human placenta); details: ref [2]; cited from earlier work

In the case of `CC(=O)NC[C@H]1[C@H](O)[C@H](O)[C@@H]2[C@H](O)C[C@@H](CO)N21` [Pochonicine (1), pochonicine], the IC50 [1] is given as 0.021 µM, the IC50 [2] is given as 0.018 µM and the IC50 [3] is given as 0.0016 µM. For the same molecule, the IC50 [4] was 0.049 µM, the “Inhibition % at 1000 μM” value ([5]; 1000 μM) was 9.0% and the IC50 ([5]; listed as pochonicine (1)) was “did not exhibit any inhibition”. For the same molecule, the IC50 [5] was “NI (No Inhibition (less than 50% at 1000 μM))”, the IC50 [6] was 0.33 µM and the IC50 [7] was 0.012 µM.
